Values belong to the molecule of their own block, whether it stands above or below them.
Columns and labels:
[1] = solubility (observation); format: physicochemical
[2] = system: K562 cells; experiment: Alamar blue proliferation assay of liposomal WBZ—1 formulations; format: cell-based; conditions: calculated from previous experiments with a similar system
Protocol: FIG. 12. K562 cells derived from chronic myeloid leukemia (CML) tumors and treated with WBZ—1 liposomal formulation using drug:lipid ratio 1:10. Cells were plated in a 96 well plate at a concentration of 10,000 cells per well and were treated 2 hours later. After 48 hours incubation, an Alamar blue assay was performed. Cells proliferation was expressed as the percentage of proliferating cells compared to the untreated. […] (*) This concentration is the maximum uptake that was calculated based on previous work using a similar system (Tari, 1996). The actual cellular uptake can be considerable lower, even 10^−3 times the effective concentration. The inventors can determine the exact uptake in future experiments using a radiolabeled lipid and prototype compound.
This modification should lead to a selective inhibition of the Bcr-Abl kinase, and indeed it does. […] In order to determine the best lipid formulation to be used, the inventors tested different WBZ—1:MDPC ratios. […] Cell proliferation inhibition was determined by Alamar blue assay after 48 hours of incubation and calculated as percentage of inhibition comparing with the untreated control. All formulations were nontoxic for the cells and a dose response curve was observed. The effective concentration ranges between 0.1 and 1 μM regardless of the lipid:drug ratio used. […]

[3] = system: JNK1/2; experiment: Western blot of phosphorylated kinases in neonatal rat ventricular myocytes (NRVM); format: cell-based; conditions: 1-50 μM, 24 h, compared to untreated cells
[4] = system: brain natriuretic peptide (BNP); experiment: RT-PCR of BNP mRNA in left ventricle of treated mice; conditions: GIST model mice after therapy
[5] = system: ERK1/2; experiment: Western blot of phosphorylated kinases in neonatal rat ventricular myocytes (NRVM); format: cell-based; conditions: 1-50 μM, 24 h, compared to untreated cultures
Protocol: This protective role of WBZ—4 has also been validated in vivo. Animals used in these studies were handled in accordance with National Institutes of Health “Guide for the Care and Use of Laboratory Animals” [Department of Health and Human Services Publication No. (NIH) 85-23, Revised 1985]. […] NRVM were isolated from the hearts of 2 day-old Sprague-Dawley rat pups via collagenase digestion as previously described (Samarel and Engelmann, 1991). Dissociated cells were pre-plated for 1 hour in serum-free PC-1 medium to selectively remove nonmuscle cells. Myocytes were then plated in PC-1 medium at a density of 1600 cells per mm^2 onto collagen-coated, plastic 35-mm dishes, and left undisturbed in a 5% CO2 incubator for 24 h. Unattached cells were removed by aspiration, and the attached cells were maintained in a solution of DMEM/Medium 199 (4:1) containing antibiotic/antimycotic solution for 24 h. […] NRVM were homogenized in lysis buffer (Schlaepfer and Hunter, 1996). Equal amounts of extracted proteins were separated on 10% SDS-polyacrylamide gels with 5% stacking gels. […] Primary antibody binding was detected with horseradish-peroxidase conjugated goat anti-mouse or goat anti-rabbit secondary antibody, and visualized by enhanced chemiluminescence.

[6] = biological target: T1, C-Kit (Homo sapiens, UniProt P10721, K642E); experiment: Western blot of C-Kit phosphorylation (Tyr703, Tyr721) in ST882 cells; format: cell-based; conditions: 6 hours, read-out: inhibitory impact on C-Kit phosphorylation in GIST cells
T1 construct: endogenous in cells; host or cells: ST882 (GIST882) cells
Protocol: A Western blot assay on treated cancer-derived cell lines (FIGS. 8C and 8D) was performed to determine the in-cell specificity of WBZ—4. […] After allowing the cells to attach for 24 hours, the cells were treated with 1 μM of WBZ—4 or Gleevec for 6 hours. For Western blotting, 50 μg of total protein were separated on a SDS-PAGE (Bio-Rad) and blotted onto nitrocellulose membranes (Bio-Rad Laboratories, Life Science Research, Hercules, Calif.). Antibodies used: anti phospho-c-Kit polyclonal antibody, Tyr703 and Tyr721 (Zymed Laboratories Inc., South San Francisco, Calif.), anti-c-Kit monoclonal antibody (E-1): sc-17806 (Santa Cruz Biotechnology) and anti β-actin monoclonal antibody (Sigma, St. Louis, Mo.). K562 cells were plated at 5×10^5 cells/well. […] Antibodies used: anti phospho-c-Abl (Tyr 412) monoclonal antibody 247C7 (Cell Signalling Technology Inc), anti-Abl monoclonal antibody (Sigma, St. Louis, Mo.).

[7] = biological target: T2, Chk1 (Homo sapiens, UniProt O14757); experiment: kinetic spectrophotometric assay of phosphorylation rate; format: biochemical
T2 sequence (O14757 1-476): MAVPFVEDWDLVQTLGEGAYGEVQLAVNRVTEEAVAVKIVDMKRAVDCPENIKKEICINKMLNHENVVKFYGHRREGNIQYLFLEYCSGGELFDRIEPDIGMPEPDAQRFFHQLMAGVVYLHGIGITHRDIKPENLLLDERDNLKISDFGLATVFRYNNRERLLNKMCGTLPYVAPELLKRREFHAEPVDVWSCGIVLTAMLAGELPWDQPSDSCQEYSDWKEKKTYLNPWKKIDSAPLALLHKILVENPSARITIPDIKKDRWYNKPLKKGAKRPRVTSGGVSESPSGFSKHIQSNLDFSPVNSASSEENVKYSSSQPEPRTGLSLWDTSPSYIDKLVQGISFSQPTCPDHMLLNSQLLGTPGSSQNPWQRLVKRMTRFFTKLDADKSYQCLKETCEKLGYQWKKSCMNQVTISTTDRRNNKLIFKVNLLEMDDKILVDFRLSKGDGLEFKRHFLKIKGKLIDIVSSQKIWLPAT
Text: (§1) To assess the specificity and affinity for Src, the staurosporine derivative is compared with the parental compound. […] Kinetic spectrophotometric assays where performed as indicated above. These assays were geared at measuring the phosphorylation rate of peptide substrates in the presence of the kinase inhibitor at different concentrations.

[8] = biological target: T3, PDK1 (Homo sapiens, UniProt O15530); experiment: as above; format: biochemical
T3 sequence (O15530 1-556): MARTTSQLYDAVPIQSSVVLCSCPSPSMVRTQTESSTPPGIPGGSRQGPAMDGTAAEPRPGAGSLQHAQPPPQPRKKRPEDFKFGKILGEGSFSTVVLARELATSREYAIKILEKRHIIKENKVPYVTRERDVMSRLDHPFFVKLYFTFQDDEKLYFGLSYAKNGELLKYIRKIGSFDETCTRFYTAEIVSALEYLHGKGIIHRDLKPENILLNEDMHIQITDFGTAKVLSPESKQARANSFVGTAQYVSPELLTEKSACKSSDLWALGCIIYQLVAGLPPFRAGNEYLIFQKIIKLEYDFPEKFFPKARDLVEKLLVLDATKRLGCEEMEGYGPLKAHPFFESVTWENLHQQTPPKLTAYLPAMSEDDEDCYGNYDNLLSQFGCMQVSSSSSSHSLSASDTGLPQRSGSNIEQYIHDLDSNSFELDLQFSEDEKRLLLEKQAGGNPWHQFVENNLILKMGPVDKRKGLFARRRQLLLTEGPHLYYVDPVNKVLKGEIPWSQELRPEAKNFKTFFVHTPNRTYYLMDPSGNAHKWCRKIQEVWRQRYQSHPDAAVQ
Text: as §1

[9] = system: Src kinase; experiment: as above; format: biochemical
Text: as §1

solubility [1]: insolubility
SMILES: Cc1ccc(NC(=O)c2ccc(CN3CCN(C)CC3)cc2)cc1Nc1nccc(-c2cnccc2C)n1 [WBZ—1, N-{5-[4-(4-methylpiperazinemethyl)-benzoylamido]-2-methylphenyl}-4-[3-(4-methyl)-pyridyl]-2-pyrimidine amine]
uptake of WBZ—1 after 48 hours [2]: 72 pmol

SMILES: Cc1ccc(NC(=O)c2ccc(CN3CCN(C)CC3)cc2)cc1Nc1nccc(-c2cccnc2)n1 [imatinib, reference compound]
JNK1/2 activation in cardiomyocytes [3]: activates JNKs
BNP mRNA levels in the left ventricle, higher than untreated [4]: about 58%
phosphorylation state of ERK1/2 in cardiomyocytes [5]: increased
inhibition at 1 µM [6]: ~85%

SMILES: CN[C@@H]1C[C@H]2O[C@@](C)([C@@H]1OC)n1c3ccccc3c3c4c(c5c6ccccc6n2c5c31)C(=O)N(C)C4 [methylated staurosporine derivative]
inhibitory impact against Chk1 [7]: very low inhibitory impact
inhibitory impact against PDK1 [8]: very low inhibitory impact
inhibition of Src compared with staurosporine levels [9]: improved

Source: US8466154B2, “Methods and compositions related to wrapping of dehydrons” (The Board of Regents of the University of Texas System, priority 2006, dated 2013)
